# Experimental data: patent publication US9205064B2, “Methods for the diagnosis of oncological disorders using epimetabolic shifters, multidimensional intracellular molecules, or environmental influencers” (Berg LLC, priority 2009, dated 2015)
# Key:
# [1] = test system: HepG2 (liver cancer) cells; assay: Real-time PCR Diabetes Array; assay type: cell-based
# Experimental: The treatment was initiated on 1×10^5 cells per well, following the procedure utilized in the PaCa2 cells (above, Examples 9-11). However, the total amount of RNA that was extracted from these samples was lower than expected. Reverse transcription is normally done using 1 μg of total RNA (determined by measurement at 260 nm). The maximum volume that can be used per reverse transcription is 8 μl.
# [2] = test system: Succinate Dehydrogenase B in NCIE0808 Mitopreps; assay: Western blot of succinate dehydrogenase B in mitochondrial preparations; assay type: cell-based; settings: mitochondrial preparations of cancer cells
# Experimental: The above blots were stripped by incubating for 30 minutes with methanol, followed by two 10 minute washes with TBS-T, then 30 minutes of incubation with Stripping buffer at 50 deg C., and followed by two washes with 100 ml or more of TBS-T for 30′ each. The blots were scanned in laser scanner to check for complete stripping. The blots were activated with methanol for 5 seconds, washed with water for 5 minutes, and TBST for 15 minutes. The blots were blocked for 1 hour with 5% blocking reagent in TBS-T at room temperature and then washed 3 times with TBS-T (1×-15′; 2×5′ each) and probed with the primary antibody for PKM2, SDHB or SDHC in 5% BSA in TBS-T by incubation overnight at 4 deg C. with gentle shaking. The primary antibody for SDHC (ABNOVA H00006391-M02; antimouse) was at 1:500 dilution. The primary antibody for SDHB was from Abcam ab4714-200; antimouse; at 1:1000 dilution. The primary antibody for Pyruvate Kinase M2 (PKM2) was from Novus Biologicals H00005315-D0IP; antirabbit; at 1:500 dilution. After incubation with primary antibodies, the membranes were washed 3 times with TBS-T (1×-15′; 2×5′ each) and probed with the secondary antibody (SDHB & C antimouse; and PKM2 antirabbit; 1:10,000 dilution) for 1 h on the orbital tilting shaker at room temperature. […]
structure (smiles),measurement,setting,value
"COC1=C(OC)C(=O)C(C/C=C(\C)CC/C=C(\C)CC/C=C(\C)CC/C=C(\C)CC/C=C(\C)CC/C=C(\C)CC/C=C(\C)CC/C=C(\C)CC/C=C(\C)CCC=C(C)C)=C(C)C1=O [Q10, Coenzyme Q10]",genes regulated in the Diabetes Arrays,"[1]; 100 μM Q10, PPARGC1A gene",PPARGC1A
same,genes regulated in the Diabetes Arrays,"[1]; 100 μM Q10, PRKAA1 gene",PRKAA1
same,genes regulated in the Diabetes Arrays,"[1]; 100 μM Q10, SNAP25 gene",SNAP25
same,SDH Subunit B protein levels,[2],increase SDH protein levels
